Results published in US10962528B2, “Blue fluorescent protein monomers and uses thereof” (WISYS TECHNOLOGY FOUNDATION, INC., priority 2015, dated 2021).

Experiments:
[1] = target: T1, Sander vitreus (blue walleye) Sandercyanin fluorescent protein (SFP), wild type, SEQ ID NO:1 (recombinant without signal peptide SEQ ID NO:31) (Sander vitreus, UniProt A0A1D5B367); experiment: Binding of biliverdin to (apo) Sandercyanin by fluorescence titration
T1 construct: apo monomer, tetramer with biliverdin
T1 sequence (A0A1D5B367 1-170): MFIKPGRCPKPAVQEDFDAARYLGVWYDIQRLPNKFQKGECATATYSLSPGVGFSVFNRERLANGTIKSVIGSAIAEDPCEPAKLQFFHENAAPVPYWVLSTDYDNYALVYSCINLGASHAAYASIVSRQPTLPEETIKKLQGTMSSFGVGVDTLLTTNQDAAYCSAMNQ
Procedure: FIGS. 11C-11D (C) Titration of apo-SFP (20 uM) with BV IXα measured at 675 nm with λex=375 nm (green) and 630 nm (red). (D) Photo-bleaching kinetics of Sandercyanin and free-biliverdin (BV).
Addition of the biliverdin to apo-protein results in red-shift in the fluorescence of Sandercyanin to near infra-red (NIR) region. Molar extinction coefficient of holoSFP measured in phosphate buffer of pH 7.4 at 375 nm and 630 nm are 21,000 M^−1 cm^−1 and 13,500 M^−1 cm^−1 respectively and quantum yield is determined to be 0.016. Further, fluorescence spectra is widely spread into the infrared region with minimal overlap with the excitation spectra. We examined the affinity of apoSFP towards BV using fluorescence and determined Kd of 6 μM.
Native SFP was extracted and purified from the mucus of Blue Walleye from Northwest Ontario by various chromatographic methods as described previously (Chi Li et al). A putative amino acid sequence of SFP was determined from crystal structure of the native protein, confirmed and corrected after whole genome sequencing of Blue Walleye. […]
All experiments were performed with purified SFP samples (apo and holo forms) at pH 7.5 and room temperature. UV-Visible absorbance spectra of native and recombinant SFP were recorded from 800 to 200 nm with ultraspec 2100 pro spectrophotometer from Amersham Biosciences. CD spectra were measured on JASCO J-815 Spectropolarimeter. […]

[2] = target: Sander vitreus Sandercyanin fluorescent protein (SFP) variant SFP-A137E, SEQ ID NO:4 (Sander vitreus, UniProt A0A1D5B367, A118E); experiment: Biliverdin binding of monomeric SFP variant
Procedure: (§1) All experiments were performed with purified SFP samples (apo and holo forms) at pH 7.5 and room temperature. UV-Visible absorbance spectra of native and recombinant SFP were recorded from 800 to 200 nm with ultraspec 2100 pro spectrophotometer from Amersham Biosciences. CD spectra were measured on JASCO J-815 Spectropolarimeter. Steady state fluorescence, excitation, binding and photobleaching studies were monitored on Horiba Jobin Yvon Fluoromax-4 fluorimeter. Data analysis were done using Origin6 and Origin8 software. Hydrogen was exchanged with Deuterium by increasing concentrations of D2O to a standard protein concentration. Deuteriated proteins were prepared in the same buffer, incubated for 15 minutes, and monitored for spectral properties.
(§2) All SFP variants were expressed using E. coli BL21*(DE3) cells. Briefly, each of the SFP monomer mutant genes in pET21a vector were transformed into BL21*(DE3) cells and selected on a LB agar plate containing ampicillin (100 μg/mL). For large scale expression, about 5 mL of the overnight grown primary culture was inoculated into 500 mL of LB medium containing 100 μg/mL ampicillin. Cells were grown at 37° C. until OD600 nm reached to 0.6-0.7. Then, cells were induced using 0.2 mM isopropyl-thiogalactoside (IPTG). Post-induction cells were grown at 20° C. for 20 hours. Thereafter, cells were harvested by centrifugation at 6000 rpm for 10 minutes. Bacterial cell pellet containing SFP as insoluble protein was resuspended in a lysis buffer (20 mM Tris-HCl, pH 7.5, 10 mM EDTA and 1% TritonX). […] Thus, refolded purified SFP was checked using an analytical gel filtration column for oligomerization state and biliverdin (BV) binding by UV-visible absorbance and fluorescence spectroscopy (FIGS. 1A-1D).
(§3) Characterization of monoSFP Variants—MonoSFP variants were characterized by size-exclusion chromatography during purification of the proteins. […] They have far-red to near infra-red fluorescence with large Stokes shift. […] To test this, we performed detergent (Triton X-100) assays with the monoSFPs and measured absorbance and fluorescence spectra. […]

[3] = target: Sander vitreus Sandercyanin fluorescent protein (SFP) variant SFP-L135E (mSFP2), SEQ ID NO:3 (Sander vitreus, UniProt A0A1D5B367, L116E); experiment: Biliverdin binding of monomeric SFP variant
Procedure: as §1, §2, §3

[4] = target: Sander vitreus Sandercyanin fluorescent protein (SFP) variant SFP-V71E (mSFP1), SEQ ID NO:2 (Sander vitreus, UniProt A0A1D5B367, V52E); experiment: Biliverdin binding of monomeric SFP variant
Procedure: as §1, §2, §3

[5] = target: T2, Sander vitreus Sandercyanin fluorescent protein (SFP) variant, Phe 55 to alanine (Sander vitreus, UniProt A0A1D5B367, F36A); experiment: Biliverdin binding of SFP mutant; conditions: Phe 55 to alanine mutation
T2 construct: preparation not described for this mutant
T2 sequence (A0A1D5B367 entry or part of it F36A): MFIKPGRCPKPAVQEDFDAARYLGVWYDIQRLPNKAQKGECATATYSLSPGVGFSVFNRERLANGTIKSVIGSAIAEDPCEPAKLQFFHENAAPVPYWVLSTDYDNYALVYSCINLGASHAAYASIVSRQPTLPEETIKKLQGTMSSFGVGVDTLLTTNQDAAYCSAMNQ

Sequence of Sander vitreus Sandercyanin fluorescent protein (SFP) variant SFP-L135E (mSFP2), SEQ ID NO:3 (A0A1D5B367 entry or part of it L116E): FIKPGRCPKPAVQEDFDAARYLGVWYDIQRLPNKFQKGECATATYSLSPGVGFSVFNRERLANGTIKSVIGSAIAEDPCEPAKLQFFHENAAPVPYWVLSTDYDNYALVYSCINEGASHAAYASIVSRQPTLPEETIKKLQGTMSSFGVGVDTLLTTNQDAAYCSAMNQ
Sequence of Sander vitreus Sandercyanin fluorescent protein (SFP) variant SFP-A137E, SEQ ID NO:4 (A0A1D5B367 entry or part of it A118E): as the sequence (A0A1D5B367 entry or part of it L116E) above, with E115L, A117E counted along it
Sequence of Sander vitreus Sandercyanin fluorescent protein (SFP) variant SFP-V71E (mSFP1), SEQ ID NO:2 (A0A1D5B367 entry or part of it V52E): as the sequence (A0A1D5B367 entry or part of it L116E) above, with V51E, E115L counted along it

C=CC1=C(C)/C(=C/C2=NC(=C\c3[nH]c(/C=C4\NC(=O)C(C)=C4C=C)c(C)c3CCC(=O)O)/C(CCC(=O)O)=C2C)NC1=O [BV, Biliverdin IXα]
Kd ([1]; Table 4, wild-type SFP (tetramer)): 5 to 6 µM | Kd ([1]; affinity of apoSFP towards BV using fluorescence, pH 7.5, room temperature): 6 µM | Kd [2]: 3 to 5 µM | Kd [3]: 4 to 12 µM | Kd [4]: 4 to 6 µM | BV binding [5]: abolished BV binding
